From patent US10821128B2, “Treatment of cancer by systemic administration of Dbait molecules” (ONXEO, priority 2016, dated 2020) come the findings set out here.

The test system of data set [1] is HCT116. The experiment in a line: In vitro proliferation assay (live cell counts). Format: cell-based, human. Here is the method: (§1) CRC cell lines; HT29 (mutated p53, ATCC: HTB-38) and HCT116 (wild-type p53, ATCC: CCL-247) were purchased directly from ATCC. These cells were authenticated by ATCC by generating human short tandem repeat profiles by simultaneously amplifying multiple STR loci and amelogenin (for gender determination) using the Promega PowerPlex® Systems. These cells were cultured in the laboratory for less than 6 months from the date of purchase in DMEM medium supplemented with 10% fetal bovine serum, 1% sodium pyruvate, […] (Invitrogen, Carlsbad, Calif.), when the current study was performed. HT29 cell line stably expressing luciferase was established in-house using a pGL4.5 luciferase reporter vector (luc2/CMV/Hygro) (Promega). HT29 luciferase cells were supplemented with 200 μg/ml hygromycin B. All cell lines were additionally subjected to mycoplasma testing in-house and were free of mycoplasma contamination (Biovalley, France).
(§2) Cells were transfected with 2.5 μgs of Dbait (5′-[…]-(H) […]-3′ SEQ ID No 9) (Eurogentec, Belgium) where H is a hexaethyleneglycol linker and underlined nucleotides are phosphorothioates. The cells were sham transfected with an 8 bp oligonucleotide control (8H) complexed with 11 kDa polyethyleneimine (PEI) as previously described (Quantz et al, 2009, PloS one, 4, e6298).
(§3) Cells were seeded at a density of 3×10^4 cells/60 mm dishes and transfected with Dbait. Following treatment, cells were washed and left untreated or treated with a combination of 5 μM of oxaliplatin (OXA, Sigma) and 2.5 μM of 5-fluouracil (5-FU, Sigma) and live cell counts were performed on days 1, 3, 5, 6, 7 and 9.

Data set [2] relates to HT29. Put plainly: In vitro proliferation assay (live cell counts). The format is cell-based, human. Here is the method:
as §1, §2, §3

Data set [3] relates to HCT116. The experiment in a line: Clonogenic survival assay. The format is cell-based, human. On the procedure: as §1, §2
(§4) Cells were transfected with Dbait and left untreated or treated with 5 μM of OXA and 2.5 μM of 5-FU for 1 hr. The cells were diluted, allowed to grow for 14 days and the clones were stained with crystal violet and counted.

The test system of data set [4] is HT29. Put plainly: Clonogenic survival assay. The format is cell-based, human. On the procedure: as §1, §2, §4
Data set [5] concerns pan-nuclear phosphorylation of H2AX in HCT116. Put plainly: γH2AX immunofluorescence (DNA-PK activation). The format is cell-based, human. Here is the method:
(§5) The inventors have previously shown that Dbait acts by activating DNA-PK kinase, which phosphorylate numerous targets including the histone variant H2AX.
(§6) γH2AX immunofluorescence was performed as described previously using a monoclonal anti-phospho-Histone H2A.X (Ser139) Antibody, clone JBW301 (1:500 dilution; 05-636, Millipore, USA) (9).

The subject of data set [6] is pan-nuclear phosphorylation of H2AX in HT29. The experiment in a line: γH2AX immunofluorescence (DNA-PK activation). The format is cell-based, human. Here is the method: as §5, §6
Data set [7] concerns MDA-MB-231 tumor. The experiment in a line: DT01 with carboplatin in MDA-MB-231 TNBC model. Format: in vivo, athymic nude mouse. The settings on record: carboplatin alone treated group; 177 days of the experiment. On the procedure: Treatment was administered in 3 cycles with a 2 week gap between cycles either alone or in association with carboplatin. Only one dose of carboplatin was injected per cycle of DT01 treatment (2nd day of each cycle). The dose of carboplatin was 50 mg/kg per cycle. Treatments were performed over 7 weeks (3 cycles of treatment).
Antitumor activity was evaluated by measuring tumor volume during and after treatment. DT01 was administered intraperitoneally during 3 sessions of 5 days treatment with two weeks of rest between each session. Carboplatin was administered once a week on the second day of each DT01 treatment cycle.
The MDA-MB231 cell line is derived from a human breast adenocarcinoma and can be ordered at the ATCC. The MDA-MB231 cells were grafted in the mammary fat pad with 10·10^6 cells re-suspended in 0.1 ml of DMEM with no additive. The athymic nude mouse is immunodeficient, thus enabling the xenotransplantation and growth of human tumors.

Where [8] appears, read: single treatment (Dbait alone, or OXA and 5-FU alone).
[9] abbreviates: combination of Dbait with chemotherapy (OXA/5-FU), p=0.05.

Take “5′-GCTGTGCCCACAACCCAGCAAACAAGCCTAGA-(H) TCTAGGCTTGTTTGCTGGGTTGTGGGCACAGC-3′ (hexaethyleneglycol linker; phosphorothioates; nucleic acid molecule Id; note=“at the 3′ end of the complementary strand the three last nucleotides with phosphorothioate or methylphosphonate backbone”; modified_base (1)..(3) mod_base= phosphorothioate or methylphosphonate backbone; (1)..(1) at the 5′ end, Lm = carboxamido oligoethylene glycol + C = single or double chain fatty acids, cholesterol, sugars, peptides or proteins; stem_loop (1)..(3) [Dbait]”: the “cell proliferation (number of living cells)” value in data set [1] (setting [8]) and in data set [2] (setting [8]) was “no effect on cell proliferation” each time. Moreover, the “level of proliferation compared to chemotherapy alone” value in data set [1] (transfected with Dbait prior to OXA/5-FU, day 9, p<0.001) was “significantly reduced”; in data set [2] (transfected with Dbait prior to OXA/5-FU, day 9, p<0.02), “significantly reduced”. Besides, the lethality entry in data set [3] (Dbait treatment alone, p<0.01) was “approximately 30%”. Further, the clonogenic survival entry is recorded as “significant reduction in survival” in data set [3] (setting [9]); “significant reduction in survival” in data set [4] (setting [9]); “no significant effect” in data set [4] (single treatment (Dbait alone, or chemotherapy alone p=0.08)). Moreover, the “activity by pan-nuclear phosphorylation of H2AX” value in data set [5] and in data set [6] was “confirmed the activity” in each case.

As for `N.N.O=C([O-])C1(C(=O)[O-])CCC1.[Pt+2]` [carboplatin], in data set [7], the abnormal death result is listed as “one”.
